Test system: 439559-082-T-J2-PDC spheroid viability
Assay: Anticancer human tumor 439559-082-T-J2-PDC patient-derived colon adenocarcinoma cell line growth inhibition [POLQ]
Settings: spheroids with HUVEC and MSC; for IC50: curve of first compound; for viability, T/C: stronger effect = lower value
Summary of the method: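 Three-cell-type spheroids modelling solid tumor plus stroma served as the readout system; POL inhibitors were tested individually and in combination, concentration ranges set by clinical Cmax where known.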
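Also: spheroids exposed to compounds for seven days before readout.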
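For viability, T/C in this document: 100% = DMSO vehicle control viability.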

In the case of `O=C(Nc1ccc(O)c(NS(=O)(=O)c2ccc(F)cc2)c1)c1ccc(-c2ccccc2)cc1` + Nc1ccc(C#CCN(C(=O)Cc2ncc(C(F)(F)F)cc2C(F)(F)F)c2ccc(F)cc2)nn1, the IC50 (second compound 0.0316 µM) is reported as > 10 µM, the IC50 (second compound 0.1 µM) is reported as > 10 µM and the IC50 (second compound 0.316 µM) is reported as > 10 µM. For the same molecule, the IC50 (second compound 1 µM) was > 10 µM, the IC50 (second compound 3.16 µM) was > 10 µM and the IC50 (second compound 10 µM) was > 10 µM. For the same molecule, the viability, T/C (second compound 0.0316 µM, first compound 0.0316 µM) was 93%, the viability, T/C (second compound 0.0316 µM, first compound 0.1 µM) was 97.5% and the viability, T/C (second compound 0.0316 µM, first compound 0.316 µM) was 98.8%. For the same molecule, the viability, T/C (second compound 0.0316 µM, first compound 1 µM) was 93.3%, the viability, T/C (second compound 0.0316 µM, first compound 3.16 µM) was 96.3% and the viability, T/C (second compound 0.0316 µM, first compound 10 µM) was 103%. The viability, T/C (second compound 0.1 µM, first compound 0.0316 µM) was 99%, the viability, T/C (second compound 0.1 µM, first compound 0.1 µM) was 103% and the viability, T/C (second compound 0.1 µM, first compound 0.316 µM) was 92.9%. The viability, T/C (second compound 0.1 µM, first compound 1 µM) was 97%, the viability, T/C (second compound 0.1 µM, first compound 3.16 µM) was 111% and the viability, T/C (second compound 0.1 µM, first compound 10 µM) was 106%. The viability, T/C (second compound 0.316 µM, first compound 0.0316 µM) was 105%, the viability, T/C (second compound 0.316 µM, first compound 0.1 µM) was 104% and the viability, T/C (second compound 0.316 µM, first compound 0.316 µM) was 94.8%. It also gave a viability, T/C (second compound 0.316 µM, first compound 1 µM) of 96.9%, a viability, T/C (second compound 0.316 µM, first compound 3.16 µM) of 87.9% and a viability, T/C (second compound 0.316 µM, first compound 10 µM) of 92.5%. It also gave a viability, T/C (second compound 1 µM, first compound 0.0316 µM) of 93.5%, a viability, T/C (second compound 1 µM, first compound 0.1 µM) of 103% and a viability, T/C (second compound 1 µM, first compound 0.316 µM) of 89.7%. It also gave a viability, T/C (second compound 1 µM, first compound 1 µM) of 90.7%, a viability, T/C (second compound 1 µM, first compound 3.16 µM) of 99.6% and a viability, T/C (second compound 1 µM, first compound 10 µM) of 96.8%. The viability, T/C (second compound 3.16 µM, first compound 0.0316 µM) was 89.6%, the viability, T/C (second compound 3.16 µM, first compound 0.1 µM) was 107% and the viability, T/C (second compound 3.16 µM, first compound 0.316 µM) was 100%. For the same molecule, the viability, T/C (second compound 3.16 µM, first compound 1 µM) was 99.6%, the viability, T/C (second compound 3.16 µM, first compound 3.16 µM) was 94.2% and the viability, T/C (second compound 3.16 µM, first compound 10 µM) was 91.3%. For the same molecule, the viability, T/C (second compound 10 µM, first compound 0.0316 µM) was 114%, the viability, T/C (second compound 10 µM, first compound 0.1 µM) was 101% and the viability, T/C (second compound 10 µM, first compound 0.316 µM) was 102%. For the same molecule, the viability, T/C (second compound 10 µM, first compound 1 µM) was 91.5%, the viability, T/C (second compound 10 µM, first compound 3.16 µM) was 113% and the viability, T/C (second compound 10 µM, first compound 10 µM) was 101%.
